Source: patent publication US11339124B2, “3-(benzylamino)-4-(cyclohexylamino)-n-(2-(piperazin-1-yl)ethyl)benzenesulfonamide derivatives and related ferrostatin-1 analogues as cell death inhibitors for treating e.g. stroke” (VIB VZW, priority 2018, dated 2022)

Key:
[1] = Plasma stability, human plasma; assay type: in vitro ADME; details: 37° C., remaining parent compound, read-out: Plasma stability (% recovery after 6 h), Human
Procedure: (§1) 5 μl of a 10 mM stock solution of the compound in DMSO was added to 995 μl of plasma to obtain a 50 μM final solution. The mixture was gently shaken for 6 h at 37° C. Aliquots of 100 μl were taken at various time points (0, 0.5 h, 1 h, 2 h, 3 h and 6 h) and diluted with 400 μl of cold methanol (stored at 4° C.). The suspension was centrifuged at 14000 rpm for 5 min. 50 μl of the supernatant was diluted with 950 μl of methanol and analysed with LC/MS/MS. The samples were analysed in triplicate. The experiment was done in duplicate. […] Enalapril maleate was used as a control in mice, rats, and in human.

[2] = Microsomal (metabolic) stability, human liver microsomes; details: human, liver microsomes
Source text: (§2) By using the measured microsomal in vitro t1/2, a calculated value for the intrinsic clearance Clint can be determined. This value states the measure in which a drug that is not bound to plasma proteins is irreversibly removed from the body by the liver. This value is expressed in mL/min/kg which can be interpreted as the volume of blood in mL that is cleared of a drug per minute per kilogram of body weight. The CLint is less sensitive to used variables in ADME assays since the amount of microsomal protein and the volume of the incubation are all taken into account. (Sohlenius-Sternbeck et al., Xenobiotica, 2012, 42, 841-853)
(§3) Liver microsomes (20 mg protein/ml), NADPH regenerating system solutions A & B and 5 mM stock compound solution (100% DMSO) are prepared. The reaction mixture finally contains 713 μL purified water, 200 μL 0.5 M potassium phosphate pH 7.4, 50 μL NADPH regenerating system solution A (BD Biosciences Cat. No. 451220), 10 μL NADPH regenerating system solution B (BD Biosciences Cat. No. 451200) and 2 μL of the compound stock solution (10 μM final concentration). The reaction mixture is warmed to 37° C. for 5 minutes in a water bath and the reaction is initiated by addition of 25 μL of liver microsomes (0.5 mg protein/ml final concentration). At different time points (0 min-15 min-30 min-60 min-120 min-240 min-360 min-24 h), 20 μL is withdrawn and 80 μL cold acetonitrile is added on ice for 10 minutes. Then the mixtures are centrifuged at 13 000 rpm for 5 min at 4° C. The supernatant is further diluted in 90% water/MeCN (1/25) to fall within the range of the LC/MS/MS analysis. At each time point, the compound is analysed using LC/MS/MS with the same UPLC system as described above. A standard curve of six points was made to fit the measured concentrations. Verapamil was used as a positive control.
(§4) All obtained readouts were processed using Microsoft Excel. In order to determine the microsomal half-life t1/2 of the compounds, the rate constant k was determined by plotting the exponential decay graphs using GraFit. Microsomal t1/2 was determined using the following formula: […]

[3] = Kinetic solubility (turbidimetric method); assay type: physicochemical; details: 10 mM PBS pH 7.4, 2% DMSO, test range 3.125-200 μM, 2 h at 37° C.
Procedure: A turbidimetric method was used. First a series of DMSO compound stock solutions was prepared ([…]). An aliquot of 4 μL stock solution was added to 196 μL PBS buffer (pH 7.4). A series of concentrations were prepared (3.13-200 μM), including a blank on a microtiter plate. (2% DMSO-D6) The microtiter plate was shaken for 10 seconds and incubated for 2 hours at 37° C. When there was no turbidity measured at a given concentration the sample was assumed to be dissolved.

[4] = system: IMR-32 Neuroblastoma cells; test: Erastin-induced ferroptosis in IMR-32 neuroblastoma cells (Sytox Green cell death readout); assay type: cell-based; details: Homo sapiens; IMR-32 cells, 10 μM erastin, compounds 1 nM to 1 μM, triplicate; read-out: IC50, antiferroptotic activity in response to erastin-induced ferroptosis
Procedure: In the present invention the potency of a compound inhibiting (or reducing) ferroptosis and/or oxytosis are determined in in vitro or in vivo assays. Typically in vitro assays are used to measure the potency of a candidate compound. Examples of suitable in vitro assays are cellular assays. One non-limiting example of an assay involves the use of the IMR-32 neuroblastoma cell line. The latter is stimulated to enter into ferroptosis upon stimulation with 10 μM erastin, a documented ferroptosis inducer (see for example Dixon et al (2012) Cell 149, 1060-1072 and ferroptosis inhibitors are evaluated for the prevention of erastin induced ferroptosis. Yet another assay is based the glutamate-induced cell death in the hippocampal cell line HT22 and ferroptosis/oxytosis inhibitors are evaluated for the prevention of cell death (see Henke N. et al (2013) Cell Death and Disease 4, e470). Still another assay is based on the sorafinib induced cell death (described to be iron dependent cell death) in hepatocellular carcinoma cells and ferroptosis inhibitors are evaluated for the prevention of cell death (see Louandre C. et al (2013) Int. J. Cancer 133, 1732). The calculated potency of a compound inhibiting ferroptosis and/or oxytosis is typically depicted as an IC50 value. Examples of suitable in vivo assays are typically pre-clinical disease models of for example mice for the diseases benefiting the application of ferroptosis and/or oxytosis inhibitors, as described herein. One non-limiting example of an in vivo assay is based on inducing liver damage in mice by administering the herbicide diquat dibromide monohydrate and ferroptosis inhibitors are evaluated based on reduced levels of liver transaminases in serum (see Ran Q et al (2004) J. Biol. Chem. 279, 53, 55137).
The IC50 values for the individual compounds of the invention were determined in the neuroblastoma, IMR-32 cell line. In brief, IMR-32 cells were subjected to 10 μM erastin, the latter compound is known to induce ferroptosis. A concentration gradient (ranging from 1 nM to 1 μM) of the compounds was applied to the cells. These experiments were performed in a 96-well format (in triplicate), and cell death was analyzed in a fluorescent plate reader by use of a fluorescent cell death dye (1.5 μM Sytox Green). The IC50 values depicted in Table 1 are the concentration values for the individual compounds which are able to overcome ferroptosis.

[5] = Microsomal (metabolic) stability, rat liver microsomes; details: rat, liver microsomes
Source text: as §2, §3, §4

[6] = Plasma stability, mouse plasma; assay type: in vitro ADME; details: 37° C., remaining parent compound, read-out: Plasma stability (% recovery after 6 h), Mouse
Procedure: as §1

[7] = Plasma stability, rat plasma; assay type: in vitro ADME; details: 37° C., remaining parent compound, read-out: Plasma stability (% recovery after 6 h), Rat
Procedure: as §1

[8] = Microsomal (metabolic) stability, mouse liver microsomes; details: liver microsomes, pH 7.4
Source text: as §2, §3, §4

recovery at 6 h, 50 μM [1]: 100% | CLint scaled at 10 µM ([2]; pH 7.4): 22.6 ± 8.1 mL/min/kg | half-life at 10 µM ([2]; pH 7.4, Microsomal stability (t1/2), human liver microsomes, 0.5 mg protein/ml, 10 μM compound, 37° C.): 58.8 ± 21 min | Solubility (kinetic) [3]: 50 to 100 µM | CLint scaled at 10 µM ([5]; pH 7.4): 326 ± 13.2 mL/min/kg | half-life at 10 µM ([5]; pH 7.4, Microsomal stability (t1/2), rat liver microsomes, 0.5 mg protein/ml, 10 μM compound, 37° C.): 10.4 ± 0.42 min | recovery at 6 h, 50 μM [6]: 100% | recovery at 6 h, 50 μM [7]: 100% | CLint scaled at 10 µM [8]: 1220 ± 48 mL/min/kg | half-life at 10 µM [8]: 3.06 ± 0.12 min
SMILES: O=S(=O)(NCCN1CCOCC1)c1ccc(NC2CCCCC2)c(NCc2ccccc2)c1 [Compound 35, 3-(benzylamino)-4-(cyclohexylamino)-N-(2-morpholinoethyl)benzenesulfonamide]
IC50 [4]: 24 nM
